“Also recorded” adds a separate entry of the source.
What was measured:
human volunteers = settings: cited from earlier work
[1] = test system: patients with chronic tension-type headache; assay: Open labeled pilot study of prophylactic Dextromethorphan; format: in vivo, human
Source text: Five patients with a diagnosis of chronic tension-type headache according to the International Headache Society (Headache Classification Committee 1988) were recruited from the outpatient headache clinic at Glostrup Hospital. There were 2 males and 3 females, and the mean age was 45.4 years (range 39-48). The mean life time duration of chronic tension-type headache was 12.2 years (range 4-25). One patient had coexisting but infrequent migraine. Exclusion criteria were; daily major medication (including prophylactic headache therapy); abuse of analgesics or alcohol; serious somatic or psychiatric diseases including depression.
Using an open labeled design, patients fulfilled a diagnostic headache diary during at least 4 weeks run-in period to ensure the diagnostic criteria. Thereafter, the patients received Dextromethorphan (Dexofan®) tablets at 30 mg each, three times per day. The treatment period lasted 4 weeks, and during this period patients were asked to continue Faith headache diaries: and record headache intensity, frequency, duration, any medication taken and any possible adverse events. At a follow up visit at day 29-32, diaries were collected and possible adverse events and evaluation of the treatment were recorded. Due to the restricted number of patients, no statistical analysis were done. The efficacy parameters were headache intensity, frequency and duration, and intake of simple analgesics. Mean values from the run-in period were compared to those obtained during the treatment period.

tension-type headache = settings: literature reports; cited from earlier work
migraine = settings: literature reports; cited from earlier work
[2] = test system: alpha-2-subunit of a calcium channel; settings: cited from earlier work
GABA A = settings: cited from earlier work
[3] = test system: patients with chronic tension-type headache; assay: Open labeled pilot study of prophylactic Gabapentin; format: in vivo, human
Source text: Three patients with a diagnosis of chronic tension-type headache according to the International Headache society (Headache Classification Committee 1988) were recruited from the outpatient headache clinic at Glostrup Hospital. The patients were males with a mean age of 42 years (range. 35-49). The mean life time duration of chronic tension-type headache was 16 years (range 7-21). […] Exclusion criteria were: daily major medication (including prophylactic headache therapy); abuse of analgesics or alcohol; serious somatic or psychiatric diseases including depression.
Using an open labeled design, patients fulfilled a diagnostic headache diary during at least 4 weeks run-in period to ensure the diagnostic criteria. Thereafter, the patients received Gabapentin (Neurontin®) tablets, initially 300 mg (one tablet) per day on day one, increasing with 300 mg (1 tablet) per day to 900 mg (3 tablets) on day 3. The treatment period lasted […], and during this period patients were asked to continue with headache diaries, and record headache intensity, frequency, duration, any medication taken and any possible adverse events. At a follow, up visit at day 29-32, diaries were collected and any adverse events and evaluation of the treatment were recorded. Duo to the low number of patients, no statistical analysis were done. The primary efficacy parameters were headache intensity frequency and duration, and the mean values from the run-in period were compared to those obtained during the treatment period, […]

GABA B = GABA B (Homo sapiens, UniProt Q9UBS5); settings: cited from earlier work
Sequence of GABA B (Q9UBS5 15-961 limits assumed): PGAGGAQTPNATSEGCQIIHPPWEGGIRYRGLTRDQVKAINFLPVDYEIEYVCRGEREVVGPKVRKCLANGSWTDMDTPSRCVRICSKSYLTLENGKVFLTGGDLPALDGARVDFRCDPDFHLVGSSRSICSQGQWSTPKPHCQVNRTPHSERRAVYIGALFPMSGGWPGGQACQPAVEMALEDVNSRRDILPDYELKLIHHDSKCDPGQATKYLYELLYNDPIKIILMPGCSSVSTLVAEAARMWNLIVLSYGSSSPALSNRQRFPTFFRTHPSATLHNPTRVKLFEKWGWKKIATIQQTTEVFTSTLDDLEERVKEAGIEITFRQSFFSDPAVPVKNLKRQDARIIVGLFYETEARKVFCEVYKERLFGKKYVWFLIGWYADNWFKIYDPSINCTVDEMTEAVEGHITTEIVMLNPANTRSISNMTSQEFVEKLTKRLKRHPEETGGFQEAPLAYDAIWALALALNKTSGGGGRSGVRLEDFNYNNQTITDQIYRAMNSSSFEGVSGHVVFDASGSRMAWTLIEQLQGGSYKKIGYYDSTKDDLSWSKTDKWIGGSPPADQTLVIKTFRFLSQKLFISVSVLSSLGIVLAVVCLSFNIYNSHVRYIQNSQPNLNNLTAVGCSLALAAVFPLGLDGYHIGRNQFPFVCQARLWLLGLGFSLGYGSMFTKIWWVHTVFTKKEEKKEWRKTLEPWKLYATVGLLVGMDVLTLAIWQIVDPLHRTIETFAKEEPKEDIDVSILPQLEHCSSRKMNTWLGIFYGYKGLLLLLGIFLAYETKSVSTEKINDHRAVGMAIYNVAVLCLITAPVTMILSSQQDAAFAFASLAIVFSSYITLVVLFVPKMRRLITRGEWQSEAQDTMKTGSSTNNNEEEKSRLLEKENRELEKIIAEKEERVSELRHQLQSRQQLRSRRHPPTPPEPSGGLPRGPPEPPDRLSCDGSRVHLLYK
Sequence of GABA B (O75899 42-941 partner): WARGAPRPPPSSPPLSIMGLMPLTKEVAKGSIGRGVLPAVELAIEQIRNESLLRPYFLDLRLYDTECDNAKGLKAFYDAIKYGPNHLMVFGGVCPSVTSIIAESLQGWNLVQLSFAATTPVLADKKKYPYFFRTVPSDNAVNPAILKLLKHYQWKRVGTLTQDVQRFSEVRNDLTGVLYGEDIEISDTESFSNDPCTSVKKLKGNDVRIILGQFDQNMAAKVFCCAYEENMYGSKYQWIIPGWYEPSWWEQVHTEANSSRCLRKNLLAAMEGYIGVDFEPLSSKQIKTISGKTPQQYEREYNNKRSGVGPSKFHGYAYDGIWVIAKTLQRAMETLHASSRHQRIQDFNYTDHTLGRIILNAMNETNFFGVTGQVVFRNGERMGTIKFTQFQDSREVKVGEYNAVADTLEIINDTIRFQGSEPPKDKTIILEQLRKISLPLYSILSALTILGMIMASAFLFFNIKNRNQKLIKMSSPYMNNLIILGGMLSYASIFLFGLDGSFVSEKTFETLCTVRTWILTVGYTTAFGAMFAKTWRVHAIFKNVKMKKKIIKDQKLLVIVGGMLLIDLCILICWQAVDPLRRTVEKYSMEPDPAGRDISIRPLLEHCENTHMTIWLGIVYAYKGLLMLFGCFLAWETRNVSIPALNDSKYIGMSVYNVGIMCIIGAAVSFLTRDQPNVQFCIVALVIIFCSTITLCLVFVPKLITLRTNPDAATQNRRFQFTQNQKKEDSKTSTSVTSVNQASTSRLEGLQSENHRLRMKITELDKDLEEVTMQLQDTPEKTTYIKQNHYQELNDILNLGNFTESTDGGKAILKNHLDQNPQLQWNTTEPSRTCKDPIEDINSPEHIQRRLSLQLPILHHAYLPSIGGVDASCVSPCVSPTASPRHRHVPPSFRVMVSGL

[4] = 0-10 VAS intensity scale, during active treatment, mean
[5] = 0-10 VAS intensity scale, run-in period, mean
[6] = open labeled, no statistical analysis

## COc1ccc2c(c1)[C@]13CCCC[C@@H]1[C@H](C2)N(C)CC3 [Dextromethorphan]
Human volunteers
  After sensation induced by repetitive stimuli: reduce the after sensation
[1]; [4]
  Headache intensity, active treatment: 3.6
[1]; [5]
  Headache intensity, run-in period: 4.4
[1]; 5 patients
  Effect in the individual patients: Two patients reported a marked effect with considerable relief of headache intensity and duration within very few days of treatment; also recorded: one patient had a slight relief of headache intensity; also recorded: two patients reported no effect at all
  Side effects: Four patients reported no side effects; also recorded: marked side effects with sedation was reported in one patient
[1]; active treatment
  Frequency of headache, active treatment: 27 days per 4 weeks period
  Mean intake of analgesics, active treatment: 0.5 dose per day
[1]; [6]
  Overall prophylactic effect: positive prophylactic effect
[1]; run-in
  Frequency of headache, run-in period: 28 days per 4 weeks period
[1]; run-in period
  Mean intake of analgesics, run-in period: 1.8 dose per day
[1]; treatment vs run-in period
  Decrease of frequency of headache: 4%
  Decrease of intake of analgesics: 72%
  Reduction of duration of the individual headache episode: 11%
[1]; treatment vs run-in period, 30 mg three times per day, 4 weeks, 5 patients
  Reduction of headache intensity: 18%

## CNS(=O)(=O)Cc1ccc2[nH]cc(CCN(C)C)c2c1 [sumatriptan]
tension-type headache
  Effect in tension-type headache: not effective to a clinically relevant extent
migraine
  Effect in migraine: highly effective

## NCC1(CC(=O)O)CCCCC1 [Gabapentin]
[2]
  Binding affinity to the alpha-2-subunit of a calcium channel: showed binding affinity
GABA A
  Affinity for GABA A: fail to show affinity
[3]; [4]
  Headache intensity, active treatment: 3.6
[3]; [5]
  Headache intensity, run-in period: 5.5
[3]; 3 patients
  Effect in the individual patients: One patient had excellent effect of Gabapentin with complete relief of the headache after 2 days treatment; also recorded: another patient had a moderate effect on headache intensity and frequency; also recorded: the third patient had no significant effect on any of efficacy parameters
  Side effects: Those two subjects with good or excellent effect reported no side effects; also recorded: sedation, vertigo and slight nausea
[3]; active treatment
  Mean daily intake of analgesics, active treatment: 0.3 dose per day
[3]; active treatment period
  Frequency of headache, active treatment: 13 days per 4 weeks
[3]; [6]
  Overall prophylactic effect: positive prophylactic effect
[3]; run-in period
  Frequency of headache, run-in period: 23.5 days per 4 weeks
  Mean daily intake of analgesics, run-in period: 1.1 dose per day
[3]; treatment vs run-in period
  Decrease of frequency of headache: 45%
  Decrease of mean daily intake of analgesics: 72%
  Reduction of duration of the individual headache episode: 8%
[3]; treatment vs run-in period, up to 900 mg per day, 3 patients
  Decrease of headache intensity: 35%
GABA B
  Affinity for GABA B: fail to show affinity

## CCOC(=O)Nc1ccc(NCc2ccc(F)cc2)nc1N [Flupirtin, ethyl 2-amino-6-(4-fluorobenylamino)-3-pyridylcarbamate]
tension-type headache
  Effect in tension-type headache: positive effects

— patent US6649605B2, “Treatment of tension-type headaches with NMDA receptor antagonists” (Head Explorer A/S, priority 1996, dated 2003)
